Laboratory results from publication PMC4790305, “An FDA-Drug Library Screen for Compounds with Bioactivities against Meticillin-Resistant Staphylococcus aureus (MRSA)” (Antibiotics, 2015).
In brackets after ≈: the same amount, converted by molar mass. Like-named read-outs stand apart in the source and are kept apart here.

Columns and labels:
[1] = system: MRSA USA 100 (ATCCBAA-1681); test: Minimum inhibitory concentration (MIC) assay, MRSA USA 100; format: cell-based, meticillin-resistant Staphylococcus aureus; conditions: Staphylococcus aureus, read-out: MRSA MICs USA 100
Text: (§1) The 1163 FDA-approved drugs were purchased as a library set from Selleckchem (catalog #L1300). For MIC assays, Ivacaftor, Mupirocin and Tigecycline were purchased from Santa Cruz Biotechnology (Dallas, TX, USA). All other test compounds were purchased from Sigma-Aldrich (St. Louis, MO, USA) and were used without further purification. MRSA strains USA 100 (ATCCBAA-1681), USA 300 (ATCC-BAA-1680), USA400 (ATCC-BAA-1707) and VISA (ATCC-700699) were purchased from ATCC (Manassas, VA, USA).
(§2) The MICs of antibiotics and peptides were determined using the microdilution method from the Clinical and Laboratory Standards Institute (CLSI) guidelines. Briefly, bacteria were grown fresh from frozen stock in MH2 agar at 37 °C. After an overnight incubation, five MRSA colonies were selected to grow in cation-adjusted MH2 broth (BD Biosciences catalog #212322) in a shaker incubator at 37 °C, 220 RPM. Cells were grown to an optical density (OD600) of 0.15–0.16 using a Microplate Spectrophotometer (Molecular Devices Spectra Max Plus), which corresponds to 1–2 × 10^8 CFU/mL. Test compounds were constituted into 4 mM DMSO stock solutions and then subjected to two-fold serial dilution in a 96-well plate with concentrations ranging from 100 to 0.2 μM in duplicates. The amount of 50 μL of microbial culture containing ~1–2 × 10^6 CFU/mL of microbes in the respective broths was introduced into each well containing 50 μL of compound. After an overnight incubation at 35 °C, OD600 measurements were conducted using the Microplate Spectrophotometer. The MIC was defined as the lowest drug concentration (μM) required to inhibit microbial growth.

[2] = system: MRSA USA 300 (ATCC-BAA-1680); test: Minimum inhibitory concentration (MIC) assay, MRSA USA 300; format: cell-based, meticillin-resistant Staphylococcus aureus; conditions: Staphylococcus aureus, read-out: MRSA MICs USA 300
Text: as §1, §2

[3] = system: MRSA USA400 (ATCC-BAA-1707); test: Minimum inhibitory concentration (MIC) assay, MRSA USA 400; format: cell-based, meticillin-resistant Staphylococcus aureus; conditions: Staphylococcus aureus, read-out: MRSA MICs USA 400
Text: as §1, §2

VISA (ATCC-700699) = test: Minimum inhibitory concentration (MIC) assay, VISA; format: cell-based, meticillin-resistant Staphylococcus aureus; conditions: Staphylococcus aureus, ATCC 700699 / MRSA / VISA, read-out: MRSA MICs VISA
Text: as §1, §2

[4] = system: Adult normal human epidermal keratinocytes (NHEK); test: Human epidermal keratinocyte viability (GI50) assay; format: cell-based; conditions: 120 h, read-out: Keratinocyte GI50
Method: Adult normal human epidermal keratinocytes (NHEK) were purchased from Lonza (catalog #00192627, Basel, Switzerland) and cultured in keratinocyte growth medium (Lonza KGM-Gold Bullet Kit) containing growth supplements (Lonza Reagent Pack) at 5% CO2 (37 °C). The cell viability assay was performed using the CellTiter-Glo Luminescent Cell Viability Assay protocol from Promega (www.promega.com, Fitchburg, WI, USA). Briefly, NHEK were treated with test compounds in keratinocyte growth medium in 96-well plates (Thermo Scientific Nunclon Delta, Waltham, MA, USA). Treated cells were incubated for 5 days at 5% CO2 (37 °C). Promega CellTiter-Glo Reagent was added and plates were shaken on an orbital shaker for […]. Next, well contents (100 μL) from each well were transferred into opaque 96-well plates (PerkinElmer OptiPlate-96) and luminescence measured by a microplate reader (Tecan Safire2).

[5] = system: panel of clinical MRSA strains (USA 100, USA 300, USA 400 and VISA); test: MIC assay against panel of clinical MRSA strains; format: cell-based, meticillin-resistant Staphylococcus aureus; conditions: Staphylococcus aureus, across USA 100, USA 300, USA 400 and VISA
Text: as §1, §2

MRSA USA300 [6] = test: Bactericidal/static determination assay; format: cell-based, meticillin-resistant Staphylococcus aureus; conditions: MRSA USA300, 4× MIC; bactericidal when ≥99.9% cell death
Method: After the MICs of test compounds were determined using the microdilution method described in Section 2.2, the entire well contents (100 μL) corresponding to 4× the MIC of the antibiotic or peptide were transferred and spread on fresh sterile MH2 agar plates. The plates were incubated overnight at 37 °C and the number of colony forming units (CFU) was determined the next day. A compound was classified as bactericidal when ≥99.9% cell death was observed.

MRSA USA300 [7] = test: Time-kill assay; format: cell-based, meticillin-resistant Staphylococcus aureus; conditions: MRSA USA300, 4× MIC, within 6 h
Method: Bacteria cells were grown to 1 × 10^8 CFU/mL in MH2 broth and then diluted […] into 5 mL aliquots to a density of 1 × 10^6 CFU/mL in a flask. Test compounds pre-dissolved in DMSO corresponding to 4× their MICs were then added into each flask with a final DMSO concentration of 2.5% v/v. The negative control was 2.5% DMSO. The flasks were incubated in a shaking incubator (220 RPM) at 37 °C. Samples (100 μL) were taken hourly from the flasks between t = 0 and t = 6 h. The samples were serially diluted in MH2 broth before plating on sterile MH2 agar and incubated overnight at 37 °C. A bacteria count for each plate was conducted the next day. A graph of Log CFU/mL was plotted against time to obtain the time-kill graph.

MRSA USA100 = test: Single-point 10 μM bacteria growth inhibition assay; format: cell-based, meticillin-resistant Staphylococcus aureus; conditions: MRSA USA 100
Text: as §1
MRSA USA100 was grown from frozen glycerol stock on Mueller Hinton 2 (MH2) agar overnight at 37 °C. Five colonies were selected from the agar plate and grown in cation-adjusted MH2 broth (BD Biosciences catalog #212322, Franklin Lakes, NJ, USA) in a shaker incubator at 37 °C, 220 RPM. Cells were grown to 1–2 × 10^8 CFU/mL and diluted 1:100 in MH2 broth. An amount of 50 μL of test compounds pre-dissolved in MH2 broth at 20 μM concentrations were added in duplicates into each well in a 96-well plate. A total of 50 μL of bacteria inoculums containing ~1 × 10^6 CFU/mL of bacteria in MH2 broth was introduced into each well containing the test compounds. The final DMSO concentration was kept at 2.5% in each well. After an overnight incubation at 35 °C, optical density (OD600) of each well was determined using the Microplate Spectrophotometer (Molecular Devices Spectra Max Plus, Sunnyvale, CA, USA).

rats = conditions: rat, cited from earlier work
[8] = cited from earlier work
[9] = system: human carcinoma cell lines; conditions: cited from earlier work
mouse = system: mouse; design: method as in PMID 12724731; conditions: cited from earlier work
[10] = intravenously administered; cited from earlier work
[11] = 5 days incubation, CellTiter-Glo
[12] = printed conversion of μM values

MIC ([1]; microdilution, overnight 35 °C) [µM] | MIC ([2]; microdilution, overnight 35 °C) [µM] | MIC ([3]; microdilution, overnight 35 °C) [µM] | MIC (VISA (ATCC-700699); microdilution, overnight 35 °C) [µM] | Compound | GI50 [4, 11] [µM] | MIC [5] [µM] | Antibacterial activity in single-point screen (MRSA USA100) | also measured
> 100 | 0.2 (≈ 0.085 µg/mL) | 0.2 (≈ 0.085 µg/mL) | > 100 | CCC[C@@H]1C[C@@H](C(=O)N[C@@H]([C@H]2O[C@H](SC)[C@H](O)[C@@H](O)[C@H]2O)[C@H](C)Cl)N(C)C1 [Clindamycin] | > 50 |  |  | 
6.25 (≈ 2.11 µg/mL) | 6.25 (≈ 2.11 µg/mL) | 6.25 (≈ 2.11 µg/mL) | 3.13 (≈ 1.06 µg/mL) | CC(=O)NC[C@H]1CN(c2ccc(N3CCOCC3)c(F)c2)C(=O)O1 [Linezolid] | > 100 |  |  | Bactericidal/static classification (MRSA USA300 [6]): bacteriostatic; log reduction in bacteria count (MRSA USA300 [7]): less than a log reduction
0.78 (≈ 0.39 µg/mL) | 0.39 (≈ 0.195 µg/mL) | 0.39 (≈ 0.195 µg/mL) | > 100 | C/C(=C\C(=O)OCCCCCCCCC(=O)O)C[C@@H]1OC[C@H](C[C@@H]2O[C@H]2[C@@H](C)[C@H](C)O)[C@@H](O)[C@H]1O [Mupirocin] | > 50 |  |  | 
3.13 (≈ 1.64 µg/mL) | 3.13 (≈ 1.64 µg/mL) | 3.13 (≈ 1.64 µg/mL) | 3.13 (≈ 1.64 µg/mL) | OC1(c2ccc(Cl)c(C(F)(F)F)c2)CCN(CCCC(c2ccc(F)cc2)c2ccc(F)cc2)CC1 [Penfluridol] | 2.1 ± 0.6 | 3.13 | either bacteriostatic or bactericidal | 
0.78 (≈ 0.457 µg/mL) | 0.78 (≈ 0.457 µg/mL) | 0.78 (≈ 0.457 µg/mL) | 1.56 (≈ 0.914 µg/mL) | CN(C)c1cc(NC(=O)CNC(C)(C)C)c(O)c2c1C[C@H]1C[C@H]3[C@H](N(C)C)C(O)=C(C(N)=O)C(=O)[C@@]3(O)C(O)=C1C2=O [Tigecycline] | 20.6 ± 4.2 |  |  | 
0.39 (≈ 0.173 µg/mL) | 0.78 (≈ 0.347 µg/mL) | 1.56 (≈ 0.693 µg/mL) | 12.5 (≈ 5.56 µg/mL) | C[C@H]1c2cccc(O)c2C(=O)C2=C(O)[C@]3(O)C(=O)C(C(N)=O)=C(O)[C@@H](N(C)C)[C@@H]3[C@@H](O)[C@@H]21 [Doxycycline] | 36.9 ± 3.7 |  |  | 
 |  |  |  | CN[C@H](CC(C)C)C(=O)N[C@H]1C(=O)N[C@@H](CC(N)=O)C(=O)N[C@H]2C(=O)N[C@H]3C(=O)N[C@H](C(=O)N[C@H](C(=O)O)c4cc(O)cc(O)c4-c4cc3ccc4O)[C@H](O)c3ccc(c(Cl)c3)Oc3cc2cc(c3O[C@@H]2O[C@H](CO)[C@@H](O)[C@H](O)[C@H]2O[C@H]2C[C@](C)(N)[C@H](O)[C@H](C)O2)Oc2ccc(cc2Cl)[C@H]1O [Vancomycin] |  |  |  | MIC [1]: 0.78 µM (≈ 1.13 µg/mL); MIC [2]: 0.78 µM (≈ 1.13 µg/mL); MIC [3]: 0.78 µM (≈ 1.13 µg/mL); MIC (VISA (ATCC-700699)): 6.25 µM (≈ 9.06 µg/mL); GI50 [4]: > 100 µM

Compound | MIC ([1]; microdilution, overnight 35 °C) [µM] | MIC ([2]; microdilution, overnight 35 °C) [µM] | MIC ([3]; microdilution, overnight 35 °C) [µM] | MIC (VISA (ATCC-700699); microdilution, overnight 35 °C) [µM] | GI50 [4, 11] [µM] | MIC [5] [µM] | Antibacterial activity in single-point screen (MRSA USA100) | also measured
O=c1[nH]c(=O)n([C@H]2C[C@H](O)[C@@H](CO)O2)cc1F [Floxuridine] | 0.025 (≈ 0.00615 µg/mL) | 0.00313 (≈ 0.000771 µg/mL) | 0.0125 (≈ 0.00308 µg/mL) | 0.00625 (≈ 0.00154 µg/mL) | > 100 | 0.00313 to 0.025 | either bacteriostatic or bactericidal | MIC [5, 12]: 0.77 to 6.16 ng/mL; Bactericidal/static classification (MRSA USA300 [6]): bactericidal; log reduction in bacteria count (MRSA USA300 [7]): ~2 log; intraperitoneal LD50 (rats; intraperitoneal): 1600 mg/kg
CC(C)(C)c1cc(C(C)(C)C)c(NC(=O)c2c[nH]c3ccccc3c2=O)cc1O [Ivacaftor] | 6.25 (≈ 2.45 µg/mL) | 6.25 (≈ 2.45 µg/mL) | 6.25 (≈ 2.45 µg/mL) | 6.25 (≈ 2.45 µg/mL) | 5.9 ± 0.5 | 6.25 | either bacteriostatic or bactericidal | 
Nc1ccn([C@@H]2O[C@H](CO)[C@@H](O)C2(F)F)c(=O)n1 [Gemcitabine] | 0.1 (≈ 0.0263 µg/mL) | 0.05 (≈ 0.0132 µg/mL) | 0.1 (≈ 0.0263 µg/mL) | 0.05 (≈ 0.0132 µg/mL) | 1.9 ± 0.2 | 0.05 to 0.1 | either bacteriostatic or bactericidal | MIC [5, 12]: 10 to 20 ng/mL; intravenous LD50 (rats; intravenous): 236 mg/kg
O=C(Nc1ccc([N+](=O)[O-])cc1Cl)c1cc(Cl)ccc1O [Niclosamide] | 0.78 (≈ 0.255 µg/mL) | 0.39 (≈ 0.128 µg/mL) | 0.78 (≈ 0.255 µg/mL) | 0.39 (≈ 0.128 µg/mL) | < 0.2 | 0.39 to 0.78 | either bacteriostatic or bactericidal | oral LD50 [8]: > 1000 mg/kg; cytotoxic concentrations towards human carcinoma cell lines [9]: sub-micromolar
O=c1[nH]cc(F)c(=O)[nH]1 [5-fluorouracil, 5-Fluorouracil] | 6.25 (≈ 0.813 µg/mL) | 3.13 (≈ 0.407 µg/mL) | 3.13 (≈ 0.407 µg/mL) | 6.25 (≈ 0.813 µg/mL) | 33.3 ± 2.6 | 3.13 to 6.25 | either bacteriostatic or bactericidal | intravenous LD50 (mouse): 81 mg/kg; half-life [10]: 10 to 16 min
